One experiment addresses T1, human DP2 receptor (Homo sapiens, UniProt Q9Y5Y4).
T1 construct: expressed in transfected cells
T1 sequence (Q9Y5Y4 1-395): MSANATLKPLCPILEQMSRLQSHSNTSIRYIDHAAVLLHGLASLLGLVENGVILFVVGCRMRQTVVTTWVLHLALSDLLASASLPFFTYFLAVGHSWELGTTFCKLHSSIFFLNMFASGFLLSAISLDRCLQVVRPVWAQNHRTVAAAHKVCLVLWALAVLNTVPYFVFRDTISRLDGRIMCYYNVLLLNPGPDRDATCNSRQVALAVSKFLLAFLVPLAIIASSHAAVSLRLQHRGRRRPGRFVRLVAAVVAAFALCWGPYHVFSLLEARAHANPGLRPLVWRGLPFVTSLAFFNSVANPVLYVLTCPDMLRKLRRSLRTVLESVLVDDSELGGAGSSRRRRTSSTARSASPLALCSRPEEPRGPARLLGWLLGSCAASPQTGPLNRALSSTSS
Nature of the experiment: DP2/CRTH2 radioligand binding assay using [3H]PGD2. The conditions noted are these: hDP2 (CRTH2) binding assay. The protocol:
The ability of a compound to bind to the human DP2 receptor is assessed via a radioligand binding assay using [^3H]PGD2. HEK293 cells stably expressing recombinant human DP2 are resuspended in 10 mM Hepes, 7.4 containing 1 mM DTT, lysed and centrifuged at 75,000×g to pellet the membranes. The membranes are resuspended in 10 mM Hepes, 7.4 containing 1 mM DTT and 10% glycerol to approximately 5 mg protein/ml. Membranes (2-10 μg protein/well) are incubated in 96-well plates with 1 nM [^3H]PGD2 and test compound in Assay Buffer (50 mM Hepes, 10 mM MnCl2, 1 mM EDTA, plus or minus 0.2% human serum albumin, pH 7.4) for 60 minutes at room temperature. The reactions are terminated by rapid filtration through Whatman GF/C glass fibre filter plates. The filter plates were pre-soaked in 0.33% polythylenimine for 30 minutes at room temperature then washed in Wash Buffer (50 mM Hepes, 0.5 M NaCl pH 7.4) prior to harvesting. After harvesting, the filter plates are washed 3 times with 1 ml cold Wash Buffer then dried. Scintillant is then added to the plates and the radioactivity retained on the filters is determined on a Packard TopCount (Perkin Elmer). Specific binding is determined as total radioactive binding minus non-specific binding in the presence of 10 μM PGD2. IC50s were determined using GraphPad prism analysis of drug titration curves.

Experiment [1] deals with T2, recombinant human CRTH2 receptor (Homo sapiens, UniProt Q9Y5Y4).
T2 construct: expressed in transfected cells
T2 sequence (Q9Y5Y4 1-395): T1 sequence (Q9Y5Y4 1-395)
The experiment can be described thus: GTPγS binding assay. In kind it is biochemical. To be noted: +HSA; read-out: hDP2 GTPγS μM (+HSA). The protocol:
The ability of a compound to inhibit binding of GTP to DP2 is assessed via a membrane GTPγS assay. CHO cells stably expressing the recombinant human CRTH2 receptor are resuspended in 10 mM Hepes, 7.4 containing 1 mM DTT, lysed and centrifuged at 75,000×g to pellet the membranes. The membranes are resuspended in 10 mM Hepes, 7.4 containing 1 mM DTT and 10% glycerol. Membranes (˜12.5 μg per well) are incubated in 96-well plates with 0.05 nM [^35S]-GTPγS, 80 nM PGD2, 5 μM GDP, and test compound in Assay Buffer (50 mM Hepes, pH 7.4, 100 mM NaCl, 5 mM MgCl2 and 0.2% human serum albumin) for 60 minutes at 30° C. The reactions are terminated by rapid filtration through Whatman GF/B glass fibre filter plates. The filter plates are washed 3 times with 1 ml cold Assay Buffer and dried. Scintillant is then added to the plates and the radioactivity retained on the filters is determined on a Packard TopCount (Perkin Elmer). Specific binding is determined as total radioactive binding minus non-specific binding in the absence of the ligand (80 nM PGD2). IC50s were determined using Graphpad prism analysis of drug titration curves.

The target in a further experiment is T3, human DP1 receptor (Homo sapiens, UniProt Q13258).
T3 construct: tissue Biological Specialty Corporation; host or cells: human platelets, membranes
T3 sequence (Q13258 1-359): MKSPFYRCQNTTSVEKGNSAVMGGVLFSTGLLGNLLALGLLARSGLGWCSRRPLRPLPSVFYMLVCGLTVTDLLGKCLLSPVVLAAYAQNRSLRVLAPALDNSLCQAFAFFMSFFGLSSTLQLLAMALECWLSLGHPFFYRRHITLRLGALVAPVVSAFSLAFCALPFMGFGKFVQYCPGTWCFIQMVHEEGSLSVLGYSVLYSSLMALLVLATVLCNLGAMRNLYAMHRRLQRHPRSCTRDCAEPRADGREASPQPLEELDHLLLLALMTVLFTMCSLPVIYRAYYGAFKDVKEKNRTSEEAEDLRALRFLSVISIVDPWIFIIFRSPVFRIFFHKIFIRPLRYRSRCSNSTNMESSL
Nature of the experiment: DP1 radioligand binding assay using [3H]BWA868C. The conditions noted are these: hDP1 binding. Here is the method: The ability of a compound to bind to the human DP1 receptor was evaluated via a radioligand membrane binding assay using the DP1 selective synthetic ligand [^3H]BW A868C. Packed human platelets (Biological Specialty Corporation), were resuspended in 6 volumes of Hepes/HBSS buffer (10 mM Hepes, 1 mM DTT in Hanks Balanced Salt Solution (HBSS)), lysed and centrifuged at 75,000×g to pellet the membranes. Membranes were resuspended in Hepes/HBSS buffer to approximately 12 mg protein/ml. Membranes (20 μg protein/well) are incubated in 96-well plates with 2 nM [^3H]BWA868C and test compound in Assay Buffer (50 mM Hepes, 10 mM MnCl2, 1 mM EDTA, plus or minus 0.2% human serum albumin, pH 7.4) for 60 minutes at room temperature. The reactions are terminated by rapid filtration through Whatman GF/C glass fibre filter plates. The filter plates were pre-soaked in 0.33% polethylenimine for 30 minutes at room temperature then washed in Wash Buffer (50 mM Hepes, 0.5 M NaCl pH 7.4) prior to harvesting. After harvesting, the filter plates are washed 3 times with 1 ml cold Wash Buffer then dried. Scintillant is then added to the plates and the radioactivity retained on the filters is determined on a Packard TopCount (Perkin Elmer). Specific binding is determined as total radioactive binding minus non-specific binding in the presence of 10 μM BW A868C. IC50s were determined using GraphPad prism analysis of drug titration curves.

This is an account of results in patent publication US8242145B2, “Cyclic diaryl ether compounds as antagonists of prostaglandin D2 receptors” (Panmira Pharmaceuticals, LLC, priority 2008, dated 2012).

Where only a bound is given, the exact number is not on record here.

Consider `O=C(O)Cc1cccc(Oc2ccc(Br)cc2CN2CCOC2=O)c1` [Compound 1-3, {3-[4-Bromo-2-(2-oxo-oxazolidin-3-ylmethyl)-phenoxy]-phenyl}-acetic acid], for which the values for the IC50 (on human DP2 receptor; in experiment [1]; at human DP1 receptor) were less than 0.3 µM, 0.3 to 1 µM and more than 1 µM, respectively.
Turning to `Cc1ncc(-c2ccc(Oc3cccc(CC(=O)O)c3)c(CN3C(=O)O[C@H](c4ccccc4)[C@@H]3C)c2)n1C` [Compound 1-71, {3-[4-(2,3-Dimethyl-3H-imidazol-4-yl)-2-((4S,5R)-4-methyl-2-oxo-5-phenyl-oxazolidin-3-ylmethyl)-phenoxy]-phenyl}-acetic acid], the IC50 at human DP2 receptor and on human DP1 receptor was 0.3 to 1 µM in each case.
Consider `Cc1c[nH]c(-c2ccc(Oc3cccc(CC(=O)O)c3)c(CN3C(=O)O[C@H](c4ccccc4)[C@@H]3C)c2)n1` [Compound 1-72, {3-[4-(4-Methyl-1H-imidazol-2-yl)-2-((4S,5R)-4-methyl-2-oxo-5-phenyl-oxazolidin-3-ylmethyl)-phenoxy]-phenyl}-acetic acid], for which the IC50 was less than 0.3 µM at human DP2 receptor and more than 1 µM on human DP1 receptor.
Consider `C[C@H]1[C@@H](c2ccccc2)OC(=O)N1Cc1cc(-c2nccn2C)ccc1Oc1cccc(CC(=O)O)c1` [Compound 1-73, {3-[4-(1-Methyl-1H-imidazol-2-yl)-2-((4S,5R)-4-methyl-2-oxo-5-phenyl-oxazolidin-3-ylmethyl)-phenoxy]-phenyl}-acetic acid], for which the IC50 at human DP2 receptor and on human DP1 receptor was 0.3 to 1 µM in each case.
Turning to `C[C@H]1[C@@H](c2ccccc2)OC(=O)N1Cc1cc(-c2nccs2)ccc1Oc1cccc(CC(=O)O)c1` [Compound 1-74, {3-[2-((4S,5R)-4-Methyl-2-oxo-5-phenyl-oxazolidin-3-ylmethyl)-4-thiazol-2-yl-phenoxy]-phenyl}-acetic acid], the IC50 at human DP2 receptor and on human DP1 receptor was less than 0.3 µM each time.
Take `COc1ccc(CC(=O)O)cc1Oc1ccc(N2CCOCC2)cc1CN1CCOC1=O` [Compound 1-90, {4-Methoxy-3-[4-morpholin-4-yl-2-(2-oxo-oxazolidin-3-ylmethyl)-phenoxy]-phenyl}-acetic acid]: the IC50 at human DP2 receptor and at human DP1 receptor was more than 1 µM throughout.
Take `COc1ccc(CC(=O)O)cc1Oc1ccc(-c2ccc(S(C)(=O)=O)cc2)cc1CN1CCOC1=O` [Compound 1-92, {3-[4′-Methanesulfonyl-3-(2-oxo-oxazolidin-3-ylmethyl)-biphenyl-4-yloxy]-4-methoxy-phenyl}-acetic acid]: the values for the IC50 at human DP2 receptor and at human DP1 receptor were less than 0.3 µM and more than 1 µM, respectively.
In the same order, the values of `COc1ccc(CC(=O)O)cc1Oc1ccc(-c2cccc(S(C)(=O)=O)c2)cc1CN1CCOC1=O` [Compound 1-93, {3-[3′-Methanesulfonyl-3-(2-oxo-oxazolidin-3-ylmethyl)-biphenyl-4-yloxy]-4-methoxy-phenyl}-acetic acid] are less than 0.3 µM and more than 1 µM.
On to `COc1ccc(CC(=O)O)cc1Oc1ccc(-c2ccccc2S(C)(=O)=O)cc1CN1CCOC1=O` [Compound 1-94, {3-[2′-Methanesulfonyl-3-(2-oxo-oxazolidin-3-ylmethyl)-biphenyl-4-yloxy]-4-methoxy-phenyl}-acetic acid], for which the IC50 on human DP2 receptor is less than 0.3 µM; on human DP1 receptor, more than 1 µM.
In the same order, the values of `COc1ccc(CC(=O)O)cc1Oc1ccc(-c2ccccc2)cc1CN1CCOC1=O` [Compound 1-95, {4-Methoxy-3-[3-(2-oxo-oxazolidin-3-ylmethyl)-biphenyl-4-yloxy]-phenyl}-acetic acid] are less than 0.3 µM and more than 1 µM.
Consider `COc1ccc(CC(=O)O)cc1Oc1ccc(-c2cnn(C)c2)cc1CN1CCOC1=O` [Compound 1-96, {4-Methoxy-3-[4-(1-methyl-1H-pyrazol-4-yl)-2-(2-oxo-oxazolidin-3-ylmethyl)-phenoxy]-phenyl}-acetic acid], for which the IC50 was less than 0.3 µM at human DP2 receptor and more than 1 µM on human DP1 receptor.
Consider `COc1ccc(CC(=O)O)cc1Oc1ccc(NC(=O)c2cc(C(F)(F)F)cc(C(F)(F)F)c2)cc1CN1CCOC1=O` [Compound 1-97, {3-[4-(3,5-Bis-trifluoromethyl-benzoylamino)-2-(2-oxo-oxazolidin-3-ylmethyl)-phenoxy]-4-methoxy-phenyl}-acetic acid], for which the IC50 is less than 0.3 µM on human DP2 receptor and more than 1 µM at human DP1 receptor.
In the same order, the values of `COc1ccc(CC(=O)O)cc1Oc1ccc(NC(=O)c2cc(C(F)(F)F)ccc2F)cc1CN1CCOC1=O` [Compound 1-98, {3-[4-(2-Fluoro-5-trifluoromethyl-benzoylamino)-2-(2-oxo-oxazolidin-3-ylmethyl)-phenoxy]-4-methoxy-phenyl}-acetic acid] are less than 0.3 µM and more than 1 µM.
The matching figures for `COc1ccc(CC(=O)O)cc1Oc1ccc(NS(=O)(=O)c2ccc(Cl)cc2)cc1CN1CCOC1=O` [Compound 1-99, {3-[4-(4-Chloro-benzenesulfonylamino)-2-(2-oxo-oxazolidin-3-ylmethyl)-phenoxy]-4-methoxy-phenyl}-acetic acid]: less than 0.3 µM and more than 1 µM.
With `O=C(O)Cc1cccc(Oc2ccc(Br)cc2CN2CCCC2=O)c1` [Compound 3-1, {3-[4-Bromo-2-(2-oxo-pyrrolidin-1-ylmethyl)-phenoxy]-phenyl}-acetic acid], the IC50 at human DP2 receptor and at human DP1 receptor was more than 1 µM throughout.
As for `COc1ccc(CC(=O)O)cc1Oc1ccc(Br)cc1CN1CCNC1=O` [Compound 3-3, {3-[4-Bromo-2-(2-oxo-imidazolidin-1-ylmethyl)-phenoxy]-4-methoxy-phenyl}-acetic acid], the IC50 on human DP2 receptor is 0.3 to 1 µM; at human DP1 receptor, more than 1 µM.
With `COc1ccc(CC(=O)O)cc1Oc1ccc(Br)cc1CN1CCN(C)C1=O` [Compound 3-4, {3-[4-Bromo-2-(3-methyl-2-oxo-imidazolidin-1-ylmethyl)-phenoxy]-4-methoxy-phenyl}-acetic acid], the IC50 at human DP2 receptor and at human DP1 receptor was more than 1 µM throughout.
